Source: PubChem BioAssay (NCI)
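Briefly, cells in 96-well plates were exposed to five compound concentrations for 48 h, and endpoints were estimated by linear interpolation. GI50: concentration for 50% inhibition of growth. At the TGI there is no net growth.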

Columns and labels:
Assay in all cases: growth of human tumour cells (NCI), 48 h
UACC-62 melanoma = test system: UACC-62 melanoma
NCI-H226 lung = test system: NCI-H226 lung
SK-MEL-28 melanoma = test system: SK-MEL-28 melanoma
SR leukemia = test system: SR leukemia
LOX IMVI melanoma = test system: LOX IMVI melanoma
IGROV1 ovarian = test system: IGROV1 ovarian
SF-295 CNS = test system: SF-295 CNS
OVCAR-8 ovarian = test system: OVCAR-8 ovarian
HCT-116 colon = test system: HCT-116 colon
K-562 leukemia = test system: K-562 leukemia

SMILES	GI50 (UACC-62 melanoma) [µM]	TGI (UACC-62 melanoma) [µM]	GI50 (NCI-H226 lung) [µM]	TGI (NCI-H226 lung) [µM]	GI50 (SK-MEL-28 melanoma) [µM]	TGI (SK-MEL-28 melanoma) [µM]	GI50 (SR leukemia) [µM]	TGI (SR leukemia) [µM]	GI50 (LOX IMVI melanoma) [µM]	TGI (LOX IMVI melanoma) [µM]	GI50 (IGROV1 ovarian) [µM]	TGI (IGROV1 ovarian) [µM]	GI50 (SF-295 CNS) [µM]	TGI (SF-295 CNS) [µM]	GI50 (OVCAR-8 ovarian) [µM]	TGI (OVCAR-8 ovarian) [µM]	GI50 (HCT-116 colon) [µM]	TGI (HCT-116 colon) [µM]	GI50 (K-562 leukemia) [µM]	TGI (K-562 leukemia) [µM]
Nc1cc2nc3ccccc3oc-2cc1=O	1.67	3.27	2.57	9.2	1.79	3.45	9.93	> 75.3	0.606	2.23	2.79	21.2	1.44	3.79	19.7	> 100	6.1	> 68	2.05	> 26.9
CCN1C(=O)N(CC)C2C1NN=c1s/c(=C\c3cccc([N+](=O)[O-])c3)c(=O)n12 (stereo not given)	0.0539	> 100	8.25	> 100	–	> 100	0.0471	> 100	0.0568	> 100	0.162	> 100	0.0423	> 100	0.172	> 100	0.0422	> 100	0.0411	> 100
C#C/C=C/CC1OC(C(Br)CC)CC(Br)C2CC1O2 (stereo not given)	–	> 100	–	> 100	–	> 100	–	> 100	–	3.39	–	14.6	–	> 100	–	> 100	–	> 100	–	> 100
Cc1cc(NS(=O)(=O)c2ccc(NC(=O)COC(=O)c3cccc4c(=O)c5ccccc5[nH]c34)cc2)no1	–	> 100	–	> 100	–	> 100	–	> 100	–	> 100	–	> 100	–	> 100	–	> 100	–	> 100	–	> 100
CC1(C)CC(=O)c2c(ccc(C(=O)C[C@@H](N)CO)c2N)O1	0.333	3.61	0.871	> 37.4	0.595	34.5	0.15	–	0.0986	1.11	0.958	> 100	1.29	> 54.9	1.08	> 69.6	0.347	> 100	0.531	> 100
COc1cc(C2C3=C(COC3=O)Nc3cc4c(cc32)OCO4)cc2c1OCO2 (stereo not given)	0.0519	> 100	0.0827	–	–	> 100	0.0479	> 100	0.0801	> 100	0.127	> 100	0.0299	–	0.102	> 100	0.0905	3.49	0.034	> 100
Brc1ccc(C2SCc3nc4ccccc4n32)cc1 (stereo not given)	–	21.1	–	34.1	–	16.7	–	28.3	–	21	–	27.3	–	24.8	–	26.6	–	19.6	–	> 100
